Data: patent US20170165236A1, “SELECTIVE SPHINGOSINE 1 PHOSPHATE RECEPTOR MODULATORS AND COMBINATION THERAPY THEREWITH” (Celgene International II Sàrl, priority 2013, published 2017)

Experiments:
S1P5 = molecular target: T1, S1P5 (Homo sapiens, UniProt Q9H228); assay: Specificity over other S1P receptors: S1P5-bla TANGO U2OS; assay type: cell-based; conditions: without Forskolin, read-out: S1P5 agonist value (EC50)
T1 construct: fused on or other part: Tango handle at the receptor's C-terminus: a TEV protease cleavage site and the Gal4-VP16 transcription factor, possibly a V2 vasopressin receptor tail; The cells also carry a beta-arrestin/TEV protease fusion and a UAS-beta-lactamase reporter
Protocol: (§1) Cells were seeded into 384-well black wall/clear bottom plates at 10^4 cells/well/19.5 μl assay media (DMEM-phenol free, 0.5% charcoal/dextran stripped serum, 2 mM glutamine, 0.1 mM NEAA, 1 mM Na-Pyruvate, 25 mM Hepes) and incubated for 18 hrs at 37° C. in 5% CO2. Dose response curves (10-point) were generated in 10 mM Hepes, 0.1% Pluronic F127, in the presence of Forskolin. Cells were treated with 0.5 μl compound in the presence of 2 μM Forskolin for 4 hrs at 37° C. The FRET-based β-lactamase fluorescent substrate (LiveBLAzer™-FRET B/G Loading Kit CC4-AM; Invitrogen) was prepared according to manufacturer's directions, and incubated with cells for 2 hrs at room temperature. Plates were read at Ex:410/Em:458 and Ex:410/Em:522, and the response ratio determined. Data was analyzed by non-linear regression to determine the EC50 for inhibition of Forskolin induced cAMP.
(§2) To assess compound specificity on other S1P receptors the following cell lines were used: S1P2 CRE-bla CHOK1, S1P3-Gα15 NFAT-bla HEK293T (Invitrogen), S1P4-bla TANGO U2OS (Invitrogen), S1P5-bla TANGO U2OS (Invitrogen). The same assay set up for S1P1 was used but without Forskolin. S1P4 and S1P5 assays were performed in FreeStyle Expression medium (Invitrogen). S1P5 cells were incubated for 48 hrs in prior to treatment with compound.

[1] = Therapeutic index, 5 or 14 day toxicology studies in rats (lung to body weight); assay type: in vivo, Sprague-Dawley rats
Protocol: All studies were conducted in non-fasted male and female Sprague-Dawely rats (Simonsen Laboratories). Rats were housed in an AAALAC accredited facility and the research was approved by the facilities Institutional Animal Care and Use Committee (IACUC). The animals were acclimated to the laboratory for at least 5 days prior to initiation of experiments.
The compounds listed in Table 6 were formulated as suspensions in a vehicle consisting of 0.5% carboxymethyl cellulose (Acros Organics) in purified water (pH adjusted to ˜2.2 with hydrochloric acid). The same formulation was used in the rat lymphopenia and toxicology studies described below. The concentration of each compound in suspension was verified to be within ±10% of the target concentration by HPLC-UV.
Prior to the conduct of toxicology studies, the effect of three to five daily doses of each compound on peripheral T-cell counts of female rats was determined (see lymphopenia measurements in rats above). In these lymphopenia studies, blood samples were collected onto EDTA at intervals after the final study dose. The collection times were not identical for each study; however, all studies included a sample collected 24 hours after the final dose. The lymphopenia data was used as a biomarker to select equally pharmacologically active doses for the subsequent toxicology study. […]

S1P1/EDG1 = S1P1/EDG1 (Homo sapiens, UniProt P21453); assay: S1P1 CRE-bla CHOK1 reporter assay, inhibition of Forskolin induced cAMP; assay type: cell-based; conditions: CRE-bla CHOK1 cells, with Forskolin; read-out: S1P1 agonist value (EC50)
Protocol: Generation of S1P1-Mediated Inhibition of cAMP Reporter Assay
S1P1/pcDNA3.1 was transfected into the CRE-bla CHO K1 (Invitrogen) cell line, and stable single cell clones were selected using standard techniques.
S1P1 CRE-Bla CHOK1 Reporter Assay—Characterization of S1P1 Agonists
as §1, with “Plates were read at Ex:410/Em:458 and Ex:410/Em:522, and the response ratio determined.” left out

S1P2 = molecular target: T2, S1P2 (Homo sapiens, UniProt O95136); assay: Specificity over other S1P receptors: S1P2 CRE-bla CHOK1; assay type: cell-based; conditions: S1P2 CRE-bla CHOK1, without Forskolin; read-out: S1P2 agonist value (EC50)
T2 construct: expressed in transfected cells; host or cells: CRE-bla CHOK1
Protocol: as §1, §2

peripheral T-cell counts = assay: Lymphopenia in rats, multiple dose; assay type: in vivo; conditions: 24 hours after final dose of a 3-5 day multiple dose regimen
Protocol: In rats: Female rats (Simonsen Laboratories, Gilroy Calif.) were housed in an ALAAC accredited facility and the research was approved by the facilities Institutional Animal Care and Use Committee (IACUC). The animals were acclimated to the laboratory for at least 5 days prior to initiation of experiments. Rats (n=3/compound/time-point) were dosed by oral gavage with 1 mg/kg compound formulated in a vehicle consisting of 5% DMSO/5% Tween 20 and 90% 0.1N HCL. Control rats were dosed PO with the vehicle. Whole blood was collected from isoflurane anesthetized rats via the retro-orbital sinus and terminal samples were collected by cardiac puncture into EDTA. Whole blood was incubated with mouse anti-rat CD32 (BD #550271), PE-mouse anti-rat CD45R/B220 (BD #554881), PECy5-mouse anti-rat CD4 (BD #554839), and APC-mouse anti-rat CD8a (eBioscience #17-0084) for 30 minutes on ice. Red blood cells were lysed using BD Pharm Lyse Lysing buffer (#555899) and white blood cells were analyzed with a BD FACSArray. Lymphopenia was expressed as the % of white blood cells that were CD4 or CD8 positive T cells. […]
Prior to the conduct of toxicology studies, the effect of three to five daily doses of each compound on peripheral T-cell counts of female rats was determined (see lymphopenia measurements in rats above). […]

S1P4 = molecular target: T3, S1P4 (Homo sapiens, UniProt O95977); assay: Specificity over other S1P receptors: S1P4-bla TANGO U2OS; assay type: cell-based; conditions: without Forskolin, read-out: S1P4 agonist value (EC50)
T3 construct: fused on or other part: Tango handle at the receptor's C-terminus: a TEV protease cleavage site and the Gal4-VP16 transcription factor, possibly a V2 vasopressin receptor tail; The cells also carry a beta-arrestin/TEV protease fusion and a UAS-beta-lactamase reporter
T3 sequence (O95977 1-384): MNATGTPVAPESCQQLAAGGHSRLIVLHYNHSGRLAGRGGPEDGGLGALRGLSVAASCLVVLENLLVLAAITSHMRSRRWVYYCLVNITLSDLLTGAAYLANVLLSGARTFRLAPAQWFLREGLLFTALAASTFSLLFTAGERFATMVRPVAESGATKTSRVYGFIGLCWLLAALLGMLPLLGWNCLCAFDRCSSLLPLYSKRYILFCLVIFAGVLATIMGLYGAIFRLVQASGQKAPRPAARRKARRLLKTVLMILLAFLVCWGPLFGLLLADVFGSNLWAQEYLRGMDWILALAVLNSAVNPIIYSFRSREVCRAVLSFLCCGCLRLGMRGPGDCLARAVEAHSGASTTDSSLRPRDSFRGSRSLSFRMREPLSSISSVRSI
Protocol: as §1, §2

Sequence of S1P1/EDG1 (P21453 whole entry): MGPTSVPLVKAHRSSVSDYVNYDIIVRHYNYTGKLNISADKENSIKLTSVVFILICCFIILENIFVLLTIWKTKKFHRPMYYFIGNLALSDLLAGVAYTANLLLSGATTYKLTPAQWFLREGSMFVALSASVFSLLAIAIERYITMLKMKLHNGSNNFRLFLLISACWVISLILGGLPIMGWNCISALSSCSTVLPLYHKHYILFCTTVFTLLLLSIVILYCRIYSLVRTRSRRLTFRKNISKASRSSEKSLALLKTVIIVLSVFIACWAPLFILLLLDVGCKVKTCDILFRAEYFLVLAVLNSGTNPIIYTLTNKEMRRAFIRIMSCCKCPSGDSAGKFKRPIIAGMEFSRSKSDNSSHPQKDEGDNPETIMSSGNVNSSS
T2 sequence (O95136 whole entry, species assumed): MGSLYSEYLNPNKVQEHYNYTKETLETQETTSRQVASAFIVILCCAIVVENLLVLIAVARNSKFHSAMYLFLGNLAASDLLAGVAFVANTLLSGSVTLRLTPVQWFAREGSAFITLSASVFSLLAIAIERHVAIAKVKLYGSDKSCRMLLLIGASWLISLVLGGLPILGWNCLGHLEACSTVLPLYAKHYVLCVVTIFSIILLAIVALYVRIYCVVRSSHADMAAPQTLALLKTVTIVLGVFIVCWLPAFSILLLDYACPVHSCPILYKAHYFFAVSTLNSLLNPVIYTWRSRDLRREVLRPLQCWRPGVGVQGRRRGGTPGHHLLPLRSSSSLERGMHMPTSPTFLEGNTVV
T1 sequence (Q9H228 whole entry, the tested form may be a part): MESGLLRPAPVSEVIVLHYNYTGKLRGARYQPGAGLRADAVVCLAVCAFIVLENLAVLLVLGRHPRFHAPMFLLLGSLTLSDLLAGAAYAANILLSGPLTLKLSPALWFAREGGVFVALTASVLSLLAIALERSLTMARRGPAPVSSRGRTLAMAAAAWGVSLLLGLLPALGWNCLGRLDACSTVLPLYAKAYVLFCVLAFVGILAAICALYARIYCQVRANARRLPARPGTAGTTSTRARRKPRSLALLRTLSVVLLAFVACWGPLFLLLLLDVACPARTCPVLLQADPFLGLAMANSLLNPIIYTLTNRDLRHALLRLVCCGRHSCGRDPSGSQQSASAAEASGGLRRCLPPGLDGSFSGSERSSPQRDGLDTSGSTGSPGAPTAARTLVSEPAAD

## CC(C)Oc1ccc(-c2nc(-c3cccc4c3CCC4NS(=O)(=O)CCO)no2)cc1C#N (stereo in doubt) [Compound 186, (R)—N-(4-(5-(3-cyano-4-isopropoxyphenyl)-1,2,4-oxadiazol-3-yl)-2,3-dihydro-1H-inden-1-yl)-2-hydroxyethanesulfonamide]
S1P5
  EC50: 32.3 nM
[1]; 5 day toxicology study, dose for 10% lung weight increase / dose for 50% T-cell depletion
  TI 5 days: 16
[1]; oral, 5 or 14 consecutive days, interpolated from dose versus lung to body weight
  Dose Resulting in 10% increase in lung weight: 1.1 mg/kg
S1P1/EDG1
  EC50: 0.05 nM
S1P2
  EC50: 1570 nM
Peripheral T-cell counts
  Dose Producing 50% lymphopenia: 0.07 mg/kg
S1P4
  EC50: 1210 nM
